In US11071300B2, “Pesticidally active pyrazole derivatives” (SYNGENTA PARTICIPATIONS AG, priority 2017, dated 2021):

What was measured:
Type in all cases: in vivo
[1] = test system: Spodoptera littoralis; assay: Spodoptera littoralis (Egyptian cotton leaf worm) leaf disc test; conditions: foliar, 72 h, application rate 200 ppm, cotton leaf discs sprayed, L1 larvae, 3 days after infestation, read-out: control (at least one of mortality, anti-feedant effect, growth inhibition)
Outline: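 Five first-instar larvae per disc were placed on dried, sprayed cotton leaf discs held on agar. Test solutions were aqueous, made from 10′000 ppm DMSO stocks. At day 3, control was counted when mortality, feeding deterrence or growth inhibition exceeded the untreated discs.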

[2] = test system: Tetranychus urticae; assay: Tetranychus urticae (two-spotted spider mite) leaf disc test; conditions: foliar, 192 h, application rate 200 ppm, bean leaf discs sprayed, 8 days after infestation, read-out: control (mortality on mixed population, mobile stages)
Protocol: Tetranychus urticae (Two-Spotted Spider Mite):
Bean leaf discs on agar in 24-well microtiter plates were sprayed with aqueous test solutions prepared from 10′000 ppm DMSO stock solutions. After drying the leaf discs were infested with a mite population of mixed ages. The samples were assessed for mortality on mixed population (mobile stages) 8 days after infestation.

[3] = test system: Plutella xylostella; assay: Plutella xylostella (diamond back moth) artificial diet test; conditions: 120 h, application rate 200 ppm, artificial diet, L2 larvae, 5 days after infestation, read-out: control (mortality and growth inhibition)
Protocol: Plutella xylostella (Diamond Back Moth):
24-well microtiter plates with artificial diet were treated with aqueous test solutions prepared from 10′000 ppm DMSO stock solutions by pipetting. After drying, the plates were infested with L2 larvae (10 to 15 per well). The samples were assessed for mortality and growth inhibition in comparison to untreated samples 5 days after infestation.

[4] = test system: Diabrotica Balteata; assay: Diabrotica balteata (corn root worm) maize sprout test; conditions: 96 h, application rate 200 ppm, maize sprouts sprayed, L2 larvae, 4 days after infestation, read-out: control (mortality and growth inhibition)
Protocol: Diabrotica Balteata, (Corn Root Worm)
Maize sprouts, placed on an agar layer in 24-well microtiter plates were treated with aqueous test solutions prepared from 10′000 ppm DMSO stock solutions by spraying. After drying, the plates were infested with L2 larvae (6 to 10 per well). The samples were assessed for mortality and growth inhibition in comparison to untreated samples 4 days after infestation.

[5] = test system: Euschistus heros; assay: Euschistus heros (neotropical brown stink bug) soybean leaf test; conditions: 120 h, application rate 200 ppm, soybean leaves sprayed, N2 nymphs, 5 days after infestation, read-out: control (mortality and growth inhibition)
Protocol: Euschistus heros (Neotropical Brown Stink Bug):
Soybean leaves on agar in 24-well microtiter plates were sprayed with aqueous test solutions prepared from 10′000 ppm DMSO stock solutions. After drying the leaves were infested with N2 nymphs. The samples were assessed for mortality and growth inhibition in comparison to untreated samples 5 days after infestation.

[6] = test system: Thrips tabaci; assay: Thrips tabaci (onion thrips) leaf disc test; conditions: foliar, 144 h, application rate 200 ppm, sunflower leaf discs sprayed, mixed ages, 6 days after infestation, read-out: control (mortality)
Protocol: Thrips tabaci (Onion Thrips):
Sunflower leaf discs were placed on agar in 24-well microtiter plates and sprayed with aqueous test solutions prepared from 10′000 ppm DMSO stock solutions. After drying the leaf discs were infested with a thrips population of mixed ages. The samples were assessed for mortality 6 days after infestation.

[7] = test system: Myzus persicae; assay: Myzus persicae (green peach aphid) leaf disc test; conditions: foliar, 144 h, application rate 200 ppm, sunflower leaf discs sprayed, mixed ages, 6 DAT, read-out: control (mortality)
Protocol: Myzus persicae (Green Peach Aphid):
Sunflower leaf discs were placed on agar in a 24-well microtiter plate and sprayed with test solutions at an application rate of 200 ppm. After drying, the leaf discs were infested with an aphid population of mixed ages. After an incubation period of 6 DAT, samples were checked for mortality.

Cn1nc(OS(=O)(=O)C(F)(C(F)(F)F)C(F)(F)F)c(C(F)(F)F)c1-c1cc(-c2ccc(Cl)c(C(=O)NC3CC3)c2)on1 [Compound 33, [5-[5-[4-chloro-3-(cyclopropylcarbamoyl)phenyl]isoxazol-3-yl]-1-methyl-4-(trifluoromethyl)pyrazol-3-yl] 1,1,1,2,3,3,3-heptafluoropropane-2-sulfonate]
≥ 80%: percent control (mortality, anti-feedant effect or growth inhibition) at 200 ppm [1] | mortality at 200 ppm [2] | mortality at 200 ppm [3] | mortality at 200 ppm [4] | mortality at 200 ppm [5] | mortality at 200 ppm [6] | mortality at 200 ppm [7]

CN(C(=O)c1cc(-c2cc(-c3c(C(F)(F)F)c(OS(=O)(=O)C(F)(C(F)(F)F)C(F)(F)F)nn3C)no2)ccc1Cl)C1CC1 [Compound 34, [5-[5-[4-chloro-3-[cyclopropyl(methyl)carbamoyl]phenyl]isoxazol-3-yl]-1-methyl-4-(trifluoromethyl)pyrazol-3-yl] 1,1,1,2,3,3,3-heptafluoropropane-2-sulfonate]
≥ 80%: percent control (mortality, anti-feedant effect or growth inhibition) at 200 ppm [1] | mortality at 200 ppm [2] | mortality at 200 ppm [3] | mortality at 200 ppm [4] | mortality at 200 ppm [5] | mortality at 200 ppm [6] | mortality at 200 ppm [7]

CCN(C(=O)c1cc(-c2cc(-c3c(C(F)(F)F)c(OS(=O)(=O)C(F)(C(F)(F)F)C(F)(F)F)nn3C)no2)ccc1Cl)C1CC1 [Compound 35, [5-[5-[4-chloro-3-[cyclopropyl(ethyl)carbamoyl]phenyl]isoxazol-3-yl]-1-methyl-4-(trifluoromethyl)pyrazol-3-yl] 1,1,1,2,3,3,3-heptafluoropropane-2-sulfonate]
≥ 80%: percent control (mortality, anti-feedant effect or growth inhibition) at 200 ppm [1] | mortality at 200 ppm [2] | mortality at 200 ppm [3] | mortality at 200 ppm [4] | mortality at 200 ppm [5] | mortality at 200 ppm [6] | mortality at 200 ppm [7]

Cn1nc(OS(=O)(=O)C(F)(C(F)(F)F)C(F)(F)F)c(C(F)(F)F)c1-c1cc(-c2ccc(Cl)c(C(=O)NC3(C#N)CC3)c2)on1 [Compound 36, [5-[5-[4-chloro-3-[(1-cyanocyclopropyl)carbamoyl]phenyl]isoxazol-3-yl]-1-methyl-4-(trifluoromethyl)pyrazol-3-yl] 1,1,1,2,3,3,3-heptafluoropropane-2-sulfonate]
≥ 80%: percent control (mortality, anti-feedant effect or growth inhibition) at 200 ppm [1] | mortality at 200 ppm [2] | mortality at 200 ppm [3] | mortality at 200 ppm [4] | mortality at 200 ppm [5] | mortality at 200 ppm [6] | mortality at 200 ppm [7]

CN(C(=O)c1cc(-c2cc(-c3c(C(F)(F)F)c(OS(=O)(=O)C(F)(C(F)(F)F)C(F)(F)F)nn3C)no2)ccc1Cl)C1(C#N)CC1 [Compound 37, [5-[5-[4-chloro-3-[(1-cyanocyclopropyl)-methyl-carbamoyl]phenyl]isoxazol-3-yl]-1-methyl-4-(trifluoromethyl)pyrazol-3-yl] 1,1,1,2,3,3,3-heptafluoropropane-2-sulfonate]
≥ 80%: percent control (mortality, anti-feedant effect or growth inhibition) at 200 ppm [1] | mortality at 200 ppm [2] | mortality at 200 ppm [3] | mortality at 200 ppm [4] | mortality at 200 ppm [5] | mortality at 200 ppm [6] | mortality at 200 ppm [7]

CCN(C(=O)c1cc(-c2cnn(-c3c(C(F)(F)F)c(OS(=O)(=O)C(F)(C(F)(F)F)C(F)(F)F)nn3C)c2)ccc1Cl)C1(C#N)CC1 [Compound 45, [5-[4-[4-chloro-3-[(1-cyanocyclopropyl)-ethyl-carbamoyl]phenyl]pyrazol-1-yl]-1-methyl-4-(trifluoromethyl)pyrazol-3-yl] 1,1,1,2,3,3,3-heptafluoropropane-2-sulfonate]
≥ 80%: percent control (mortality, anti-feedant effect or growth inhibition) at 200 ppm [1] | mortality at 200 ppm [2] | mortality at 200 ppm [3] | mortality at 200 ppm [4] | mortality at 200 ppm [5] | mortality at 200 ppm [6] | mortality at 200 ppm [7]

CC(=O)N(C(=O)c1cc(-c2cnn(-c3c(C(F)(F)F)c(OS(=O)(=O)C(F)(C(F)(F)F)C(F)(F)F)nn3C)c2)ccc1Cl)C1(C#N)CC1 [Compound 46, [5-[4-[3-[acetyl-(1-cyanocyclopropyl)carbamoyl]-4-chloro-phenyl]pyrazol-1-yl]-1-methyl-4-(trifluoromethyl)pyrazol-3-yl] 1,1,1,2,3,3,3-heptafluoropropane-2-sulfonate]
≥ 80%: percent control (mortality, anti-feedant effect or growth inhibition) at 200 ppm [1] | mortality at 200 ppm [2] | mortality at 200 ppm [3] | mortality at 200 ppm [4] | mortality at 200 ppm [5] | mortality at 200 ppm [6] | mortality at 200 ppm [7]

COCN(C(=O)c1cc(-c2cnn(-c3c(C(F)(F)F)c(OS(=O)(=O)C(F)(C(F)(F)F)C(F)(F)F)nn3C)c2)ccc1Cl)C1(C#N)CC1 [Compound 48, [5-[4-[4-chloro-3-[(1-cyanocyclopropyl)-(methoxymethyl)carbamoyl]phenyl]pyrazol-1-yl]-1-methyl-4-(trifluoromethyl)pyrazol-3-yl] 1,1,1,2,3,3,3-heptafluoropropane-2-sulfonate]
≥ 80%: percent control (mortality, anti-feedant effect or growth inhibition) at 200 ppm [1] | mortality at 200 ppm [2] | mortality at 200 ppm [3] | mortality at 200 ppm [4] | mortality at 200 ppm [5] | mortality at 200 ppm [6] | mortality at 200 ppm [7]

Cn1nc(OS(=O)(=O)C(F)(C(F)(F)F)C(F)(F)F)c(C(F)(F)F)c1-n1cc(-c2ccc(Cl)c(C(=O)N(CC#N)C3(C#N)CC3)c2)cn1 [Compound 49, [5-[4-[4-chloro-3-[(1-cyanocyclopropyl)-(cyanomethyl)carbamoyl]phenyl]pyrazol-1-yl]-1-methyl-4-(trifluoromethyl)pyrazol-3-yl] 1,1,1,2,3,3,3-heptafluoropropane-2-sulfonate]
≥ 80%: percent control (mortality, anti-feedant effect or growth inhibition) at 200 ppm [1] | mortality at 200 ppm [2] | mortality at 200 ppm [3] | mortality at 200 ppm [4] | mortality at 200 ppm [5] | mortality at 200 ppm [6] | mortality at 200 ppm [7]

C#CCN(C(=O)c1cc(-c2cnn(-c3c(C(F)(F)F)c(OS(=O)(=O)C(F)(C(F)(F)F)C(F)(F)F)nn3C)c2)ccc1Cl)C1(C#N)CC1 [Compound 50, [5-[4-[4-chloro-3-[(1-cyanocyclopropyl)-prop-2-ynyl-carbamoyl]phenyl]pyrazol-1-yl]-1-methyl-4-(trifluoromethyl)pyrazol-3-yl] 1,1,1,2,3,3,3-heptafluoropropane-2-sulfonate]
≥ 80%: percent control (mortality, anti-feedant effect or growth inhibition) at 200 ppm [1] | mortality at 200 ppm [2] | mortality at 200 ppm [3] | mortality at 200 ppm [4] | mortality at 200 ppm [5] | mortality at 200 ppm [6] | mortality at 200 ppm [7]
